Reference: the NIST ThermoML archive (doi:10.1021/je800110r)

Settings: 303.15 K, Liquid, Vibrating tube method

CCCCCCCCCC [decane]
Settings | mass density [kg/m3]
24341 kPa | 740.5
24369 kPa | 740.3
24389 kPa | 740.3
24417 kPa | 740.4
24444 kPa | 740.4
24484 kPa | 740.5
24509 kPa | 740.4
24577 kPa | 740.5
24654 kPa | 740.6
24804 kPa | 740.6
24833 kPa | 740.7
24870 kPa | 740.7
24908 kPa | 740.7
24929 kPa | 740.7
24962 kPa | 740.7
24995 kPa | 740.8
25025 kPa | 740.7
25050 kPa | 740.7
25648 kPa | 741.1
25678 kPa | 741.3
25713 kPa | 741.2
25744 kPa | 741.3
25771 kPa | 741.3
25839 kPa | 741.3
25875 kPa | 741.2
25902 kPa | 741.4
25935 kPa | 741.4
25959 kPa | 741.5
26009 kPa | 741.4
26041 kPa | 741.5
26073 kPa | 741.5
26100 kPa | 741.5
26137 kPa | 741.5
26164 kPa | 741.5
26206 kPa | 741.5
26242 kPa | 741.5
26270 kPa | 741.6
26309 kPa | 741.6
26334 kPa | 741.6
26357 kPa | 741.7
26400 kPa | 741.7
26433 kPa | 741.8
26465 kPa | 741.7
26494 kPa | 741.7
26532 kPa | 741.8
26574 kPa | 741.8
26607 kPa | 741.9
26640 kPa | 741.8
26684 kPa | 741.9
26718 kPa | 741.8
26752 kPa | 741.9
26781 kPa | 741.9
26820 kPa | 741.9
26844 kPa | 741.9
26884 kPa | 741.9
26923 kPa | 742
26947 kPa | 742
26982 kPa | 742.1
27007 kPa | 742
27037 kPa | 742.2
27071 kPa | 742.1
27116 kPa | 742.2
27156 kPa | 742.2
27186 kPa | 742.1
27226 kPa | 742.2
27262 kPa | 742.2
27298 kPa | 742.3
27333 kPa | 742.3
27375 kPa | 742.4
27400 kPa | 742.4
27431 kPa | 742.3
27462 kPa | 742.4
27503 kPa | 742.3
27535 kPa | 742.4
27585 kPa | 742.4
27622 kPa | 742.4
27666 kPa | 742.4
27697 kPa | 742.5
27724 kPa | 742.6
27748 kPa | 742.5
27771 kPa | 742.6
27803 kPa | 742.5
27827 kPa | 742.7
27859 kPa | 742.6
27890 kPa | 742.6
27923 kPa | 742.8
27952 kPa | 742.6
27975 kPa | 742.7
27999 kPa | 742.8
28032 kPa | 742.7
28057 kPa | 742.8
28085 kPa | 742.7
28118 kPa | 742.9
28151 kPa | 742.8
28180 kPa | 742.9
28205 kPa | 742.8
28234 kPa | 742.9
28258 kPa | 742.9
28289 kPa | 742.9
28314 kPa | 742.9
28343 kPa | 743
28369 kPa | 743
28399 kPa | 743.1
28443 kPa | 743
28470 kPa | 743.1
28511 kPa | 743.2
28542 kPa | 743.1
28562 kPa | 743.1
28584 kPa | 743.2
28605 kPa | 743.1
28622 kPa | 743.2
28643 kPa | 743.1
28666 kPa | 743.1
28685 kPa | 743.3
28705 kPa | 743.2
28725 kPa | 743.2
28754 kPa | 743.3
28771 kPa | 743.3
28791 kPa | 743.3
28809 kPa | 743.2
28826 kPa | 743.2
28844 kPa | 743.4
28865 kPa | 743.2
28885 kPa | 743.3
28902 kPa | 743.2
28928 kPa | 743.4
28945 kPa | 743.3
28966 kPa | 743.4
28986 kPa | 743.4
29000 kPa | 743.5
29018 kPa | 743.4
29042 kPa | 743.4
29062 kPa | 743.4
29083 kPa | 743.4
29107 kPa | 743.4
29131 kPa | 743.5
29154 kPa | 743.4
